Measurements as given in patent US20100267561A1, “HERBICIDAL PYRIDAZINONE DERIVATIVES” (priority 2007, published 2010).

Tests used:
Format in all cases: in vivo
[1] = tested on: common (oilseed) sunflower (Helianthus annuus); assay: Test B pre-/postemergence plant response; details: Preemergence; for Sunflower plant response rating: scale 0 to 100
In short: (§1)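 Seeds were sown and sprayed preemergence, while plants at 2 to 18 cm (1- to 4-leaf stage) got postemergence sprays. Compounds were formulated in a non-phytotoxic solvent mixture with surfactant. After 13 to 15 days in a greenhouse, injury was rated visually against untreated controls, 0 (no effect) to 100 (complete control).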

[2] = tested on: surinam grass (Brachiaria decumbens); assay: Test B pre-/postemergence plant response
In short: as §1

[3] = tested on: common ragweed (Ambrosia elation); assay: Test B pre-/postemergence plant response
In short: as §1

[4] = tested on: goosegrass (Eleusine indica); assay: Test B pre-/postemergence plant response
In short: as §1

[5] = tested on: lambsquarters (Chenopodium album); assay: Test B pre-/postemergence plant response
In short: as §1

[6] = tested on: large crabgrass (Digitaria sanguinalis); assay: Test B pre-/postemergence plant response
In short: as §1

[7] = tested on: cocklebur (Xanthium strumarium); assay: Test B pre-/postemergence plant response; details: for Cocklebur plant response rating: 8 g ai/ha
In short: as §1

soybean (Glycine max) = assay: Test B pre-/postemergence plant response
In short: as §1

corn (Zea mays) = assay: Test B pre-/postemergence plant response
In short: as §1

kochia (Kochia scoparia) = assay: Test B pre-/postemergence plant response; details: for Kochia plant response rating: postemergence, 0-100 scale; for Plant response rating, Kochia: Postemergence
In short: as §1

[8] = tested on: Russian thistle (Salsola iberica); assay: Test B pre-/postemergence plant response; details: Preemergence; for Russian Thistle plant response rating: scale 0 to 100
In short: as §1

[9] = tested on: wheat (Triticum aestivum); assay: Test B pre-/postemergence plant response
In short: as §1

[10] = tested on: bermudagrass (Cynodon dactylon); assay: Test B pre-/postemergence plant response; details: for Bermudagrass plant response rating: 8 g ai/ha
In short: as §1

[11] = tested on: ducksalad (Heteranthera limosa); assay: Test B flooded paddy test plant response
In short: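 Step one: raise plants to 2 leaves. Step two: flood pots 3 cm over the soil and apply compound into the water, keeping this depth. Step three: after 13–15 greenhouse days, score visually versus controls, 0–100, where 100 means complete control.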

[12] = 31 g ai/ha, scale 0 to 100 (0 no effect, 100 complete control)
[13] = 62 g ai/ha, 0 to 100 scale, 0 no effect, 100 complete control
[14] = 8 g ai/ha, postemergence, 0-100 scale
[15] = 16 g ai/ha, postemergence, 0-100 scale
[16] = Postemergence, 31 g ai/ha, scale 0 to 100
[17] = Postemergence, 62 g ai/ha, scale 0 to 100, 0 no effect, 100 complete control
[18] = Preemergence, 31 g ai/ha, scale 0 to 100 (0 no effect, 100 complete control)
[19] = Preemergence, 62 g ai/ha, 0 to 100 scale, 0 no effect, 100 complete control
[20] = Preemergence, 16 g ai/ha, scale 0 to 100
[21] = Preemergence, 8 g ai/ha, scale 0 to 100
[22] = Postemergence, 16 g ai/ha, scale 0 to 100
[23] = Preemergence, 16 g ai/ha, scale 0 to 100 (0 no effect, 100 complete control)

## CCCc1cc(-c2ccc(C(F)(F)F)cc2)nn1-c1c(O)cnn(C)c1=O [Compound 72]
[1]; [12]
  Plant response rating, Sunflower: 0
[1]; [13]
  Plant response rating, Sunflower: 0
[1]; 8 g ai/ha
  Sunflower plant response rating: 0
[1]; 16 g ai/ha
  Sunflower plant response rating: 0
[2]; [14]
  Surinam Grass plant response rating: 95
[2]; [15]
  Surinam Grass plant response rating: 95
[2]; [16]
  Plant response rating, Surinam Grass: 98
[2]; [17]
  Plant response rating, Surinam Grass: 100
[2]; [18]
  Plant response rating, Surinam Grass: 85
[2]; [19]
  Plant response rating, Surinam Grass: 100
[2]; [20]
  Surinam Grass plant response rating: 85
[3]; [14]
  Ragweed plant response rating: 0
[3]; [15]
  Ragweed plant response rating: 0
[3]; [16]
  Plant response rating, Ragweed: 0
[3]; [17]
  Plant response rating, Ragweed: 0
[3]; [18]
  Plant response rating, Ragweed: 0
[3]; [19]
  Plant response rating, Ragweed: 10
[3]; [21]
  Ragweed plant response rating: 0
[3]; [20]
  Ragweed plant response rating: 0
[4]; [14]
  Goosegrass plant response rating: 30
[4]; [15]
  Goosegrass plant response rating: 30
[4]; [16]
  Plant response rating, Goosegrass: 35
[4]; [17]
  Plant response rating, Goosegrass: 35
[4]; [18]
  Plant response rating, Goosegrass: 95
[4]; [19]
  Plant response rating, Goosegrass: 100
[4]; [21]
  Goosegrass plant response rating: 95
[4]; [20]
  Goosegrass plant response rating: 95
[5]; [14]
  Lambsquarters plant response rating: 0
[5]; [15]
  Lambsquarters plant response rating: 0
[5]; [16]
  Plant response rating, Lambsquarters: 0
[5]; [17]
  Plant response rating, Lambsquarters: 0
[5]; [18]
  Plant response rating, Lambsquarters: 30
[5]; [19]
  Plant response rating, Lambsquarters: 40
[5]; [21]
  Lambsquarters plant response rating: 0
[5]; [20]
  Lambsquarters plant response rating: 0
[6]; [14]
  Crabgrass, Large plant response rating: 95
[6]; [22]
  Plant response rating, Crabgrass, Large: 100
[6]; [16]
  Plant response rating, Crabgrass, Large: 100
[6]; [17]
  Plant response rating, Crabgrass, Large: 100
[6]; [18]
  Plant response rating, Crabgrass, Large: 80
[6]; [19]
  Plant response rating, Crabgrass, Large: 100
[6]; [21]
  Crabgrass, Large plant response rating: 30
[6]; [20]
  Crabgrass, Large plant response rating: 50
[7]; postemergence, 0-100 scale
  Cocklebur plant response rating: 0
[7]; [22]
  Plant response rating, Cocklebur: 0
[7]; [16]
  Plant response rating, Cocklebur: 0
[7]; [17]
  Plant response rating, Cocklebur: 0
[7]; [23]
  Plant response rating, Cocklebur: 0
[7]; [18]
  Plant response rating, Cocklebur: 0
[7]; [19]
  Plant response rating, Cocklebur: 0
[7]; Preemergence, scale 0 to 100
  Cocklebur plant response rating: 0
Soybean (Glycine max); [14]
  Soybean plant response rating: 0
Soybean (Glycine max); [15]
  Soybean plant response rating: 0
Soybean (Glycine max); [16]
  Plant response rating, Soybean: 0
Soybean (Glycine max); [17]
  Plant response rating, Soybean: 0
Soybean (Glycine max); [18]
  Plant response rating, Soybean: 0
Soybean (Glycine max); [19]
  Plant response rating, Soybean: 0
Soybean (Glycine max); [21]
  Soybean plant response rating: 0
Soybean (Glycine max); [20]
  Soybean plant response rating: 0
Corn (Zea mays); [14]
  Corn plant response rating: 50
Corn (Zea mays); [22]
  Plant response rating, Corn: 90
Corn (Zea mays); [16]
  Plant response rating, Corn: 90
Corn (Zea mays); [17]
  Plant response rating, Corn: 100
Corn (Zea mays); [18]
  Plant response rating, Corn: 85
Corn (Zea mays); [19]
  Plant response rating, Corn: 100
Corn (Zea mays); [21]
  Corn plant response rating: 70
Corn (Zea mays); [20]
  Corn plant response rating: 80
Kochia (Kochia scoparia); 8 g ai/ha
  Kochia plant response rating: 0
Kochia (Kochia scoparia); 16 g ai/ha
  Kochia plant response rating: 0
Kochia (Kochia scoparia); 31 g ai/ha, scale 0 to 100
  Plant response rating, Kochia: 0
Kochia (Kochia scoparia); 62 g ai/ha, scale 0 to 100, 0 no effect, 100 complete control
  Plant response rating, Kochia: 0
[8]; [12]
  Plant response rating, Russian Thistle: 0
[8]; [13]
  Plant response rating, Russian Thistle: 0
[8]; 8 g ai/ha
  Russian Thistle plant response rating: 0
[8]; 16 g ai/ha
  Russian Thistle plant response rating: 0
[9]; [14]
  Wheat plant response rating: 85
[9]; [15]
  Wheat plant response rating: 85
[9]; [16]
  Plant response rating, Wheat: 85
[9]; [17]
  Plant response rating, Wheat: 95
[9]; [18]
  Plant response rating, Wheat: 80
[9]; [19]
  Plant response rating, Wheat: 90
[9]; [20]
  Wheat plant response rating: 35
[10]; postemergence, 0-100 scale
  Bermudagrass plant response rating: 0
[10]; [22]
  Plant response rating, Bermudagrass: 50
[10]; [16]
  Plant response rating, Bermudagrass: 60
[10]; [17]
  Plant response rating, Bermudagrass: 80
[10]; Preemergence, scale 0 to 100 (0 no effect, 100 complete control)
  Bermudagrass plant response rating: 40
[10]; [23]
  Plant response rating, Bermudagrass: 100
[10]; [18]
  Plant response rating, Bermudagrass: 100
[10]; [19]
  Plant response rating, Bermudagrass: 100
[11]; Flood (flooded paddy test), 62 g ai/ha, scale 0 to 100, 0 no effect, 100 complete control
  Plant response rating, Ducksalad: 0
[11]; Flood (flooded paddy test), 125 g ai/ha, scale 0 to 100, 0 no effect, 100 complete control
  Plant response rating, Ducksalad: 0
[11]; Flood (flooded paddy test), 250 g ai/ha, scale 0 to 100, 0 no effect, 100 complete control
  Plant response rating, Ducksalad: 40
[11]; Flood, 31 g ai/ha, scale 0 to 100
  Plant response rating, Ducksalad: 0
